# Experimental data published in patent US9139577B2, “Sulfoximine substituted quinazolines for pharmaceutical compositions” (Boehringer Ingelheim International GmbH, priority 2013, dated 2015).
# Target: MNK2a (Homo sapiens (Human), UniProt Q9HBH9)
# Assay: MNK2a in vitro kinase assay (Assay 2), ADP-Glo
# Type: biochemical
# Conditions: read-out: MNK2 IC50
# Method: B. MNK2a In vitro Kinase Assay (Assay 2)
# ASSAY SETUP: The inhibition of kinase activity of MNK2a was assessed using pre-activated GST-MNK2a. The white, 384-well OptiPlate F plates were purchased from PerkinElmer. The ADP-Glo Kinase Assay (including ultra pure ATP) was purchased from Promega (V9103). Activated MNK2a was obtained as described in WO2011/104340. […] ID No. 5 of WO 2011/104340 by the C-terminal —CONH2 group, was purchased from Thermo Fisher Scientific. All other materials were of highest grade commercially available. Compounds are tested in either serial dilutions or single dose concentrations. The compound stock solutions are 10 mM in 100% DMSO The serial compound dilutions are prepared in 100% DMSO followed by 1:27.3 intermediate dilution in assay buffer. The final DMSO concentration in assay will be <3%. In the 384-well plates 3 μl of test compound from the intermediate dilution is mixed with 4 μl of the activated MNK2 enzyme (final concentration of 10 nM) and 4 μl of the peptide (final concentration of 25 μM)/ultra pure ATP (final concentration of 20 μM), all dissolved in assay buffer. This step is followed by an incubation time of 90 min, then 10 μl of ADP Glo reagent are added, followed by 40 min of incubation. Then 20 μl of kinase detection reagent are admixed. The plates are sealed and after an incubation period of 30 min, the luminescence signal is measured in an Envision reader to determine the amount of produced ADP. All incubation steps are performed at room temperature. The assay buffer consists of 20 mM HEPES, 2 mM DTT, 0.01% BSA, 20 mM MgCl2 and 0.1% Pluronic F-127.
# The luminescent signal generated is proportional to the ADP concentration produced and is correlated with activated MNK2 activity. The analysis of the data is performed by the calculation of the percentage of ATP consumption of activated MNK2 in the presence of the test compound compared to the consumption of ATP in the presence of activated MNK2 without compound. (RLU(sample)−RLU(low control))*100/(RLU(high value)−RLU(low control)) [RLU=relative luminescence units]
# […] values based on dose response curves are calculated with the AssayExplorer software.
# Sequence of MNK2a (Q9HBH9 whole entry): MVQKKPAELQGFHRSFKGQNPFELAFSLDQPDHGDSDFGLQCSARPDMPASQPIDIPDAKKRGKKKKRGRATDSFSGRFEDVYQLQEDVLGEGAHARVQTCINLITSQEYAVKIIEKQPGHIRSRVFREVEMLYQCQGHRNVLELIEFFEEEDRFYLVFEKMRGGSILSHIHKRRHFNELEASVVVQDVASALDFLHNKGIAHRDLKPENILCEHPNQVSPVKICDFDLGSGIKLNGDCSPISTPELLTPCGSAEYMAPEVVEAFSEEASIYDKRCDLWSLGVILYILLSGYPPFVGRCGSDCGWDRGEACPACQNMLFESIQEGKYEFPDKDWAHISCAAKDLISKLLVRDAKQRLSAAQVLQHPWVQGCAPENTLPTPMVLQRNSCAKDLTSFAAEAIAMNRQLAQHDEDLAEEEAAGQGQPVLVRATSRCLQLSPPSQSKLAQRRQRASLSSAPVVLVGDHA
row,Compound,IC50 [nM]
1,Cc1cc(N=S2(=O)CCC2)cc2ncnc(Nc3ccc(F)cc3O[C@H](C)C(=O)NCCCF)c12 [Example 4.144],2
2,Cc1cc(N=S2(=O)CCC2)cc2ncnc(Nc3ccc(Cl)cc3O[C@H](C)C(=O)NCC(F)(F)F)c12 [Example 4.122],1
3,CCC(Oc1cc(F)ccc1Nc1ncnc2cc(N=S(C)(C)=O)cc(C)c12)C(=O)OC (stereo not drawn) [Example 3.017],138
4,CCOc1cc(N=S2(=O)CCC2)cc2ncnc(Nc3ccc(F)cc3O[C@H](C)C(=O)NCC(F)(F)F)c12 [Example 6.003],4
5,C[C@@H](Oc1cc(F)ccc1Nc1ncnc2cc(N=S(C)(C)=O)cc(Cl)c12)C(=O)NCC(F)(F)F [Example 4.091],1
6,Cc1cc(N=S2(=O)CC(C)(C)C2)cc2ncnc(Nc3ccc(Cl)cc3O[C@H](C)C(=O)N[C@@H](C)C(F)(F)F)c12 [Example 2.034],1
7,CC(NC(=O)[C@@H](C)Oc1cc(F)ccc1Nc1ncnc2cc(N=S(C)(C)=O)cc(F)c12)C(F)F (stereo partly drawn) [Example 4.083],8
8,Cc1cc(N=S(C)(C)=O)cc2ncnc(Nc3ccc(Cl)cc3O[C@H](C)C(=O)NCC(F)F)c12 [Example 4.142],2
9,Cc1cc(N=S2(=O)CCC2)cc2ncnc(Nc3ccc(F)cc3O[C@H](C)C(=O)NCCC(F)F)c12 [Example 4.116],2
10,Cc1cc(N=S2(=O)CCCC2)cc2ncnc(Nc3ccc(F)cc3O[C@H](C)C(=O)NCC(F)F)c12 [Example 4.043],2
11,Cc1cc(N=S(C)(C)=O)cc2ncnc(Nc3ccc(F)cc3O[C@H](C)C(=O)NC(CF)CF)c12 [Example 4.101],3
12,Cc1cc(N=S2(=O)CCC2)cc2ncnc(Nc3cccnc3O[C@H](C)C(=O)NCC(F)(F)F)c12 [Example 2.039],3
13,Cc1cc(N=S(C)(C)=O)cc2ncnc(Nc3ccc(F)cc3O[C@H](CF)C(=O)NCC(F)(F)F)c12 [Example 7.013],4
14,C[C@@H](Oc1cc(F)ccc1Nc1ncnc2cc(N=S3(=O)CCC3)cc(C(F)F)c12)C(=O)NCC(F)(F)F [Example 4.110],2
15,CC(NC(=O)[C@@H](C)Oc1cc(F)ccc1Nc1ncnc2cc(N=S3(=O)CCC3)cc(F)c12)C(F)F (stereo partly drawn) [Example 4.130],3
16,C[C@@H](Oc1cc(F)ccc1Nc1ncnc2cc(N=S3(=O)CC(C)(C)C3)cc(F)c12)C(=O)NCC#N [Example 2.026],1
17,C[C@@H](Oc1cc(F)ccc1Nc1ncnc2cc(N=S3(=O)CCC3)cc(Cl)c12)C(=O)N[C@H](C)C(F)(F)F [Example 4.090],1
18,Cc1cc(N=S(C)(C)=O)cc2ncnc(Nc3ccc(Cl)cc3O[C@H](C)C(=O)NCC(F)(F)F)c12 [Example 4.092],2
19,Cc1cc(N=S2(=O)CCC(C)C2)cc2ncnc(Nc3ccc(F)cc3O[C@H](C)C(=O)NCC(F)(F)F)c12 (stereo partly drawn) [Example 2.035],2
20,Cc1cc(N=S(C)(C)=O)cc2ncnc(Nc3cccnc3OC(C)C(F)(F)F)c12 (stereo not drawn) [Example 1.017],12
21,COc1cc(N=S2(=O)CCC2)cc2ncnc(Nc3ccc(F)cc3O[C@H](C)C(=O)NCC(F)(F)F)c12 [Example 2.047],3
22,Cc1cc(N=S(C)(C)=O)cc2ncnc(Nc3ccc(F)cc3O[C@H](CO)C(N)=O)c12 [Example 7.012],46
23,Cc1cc(N=S2(=O)CCC2)cc2ncnc(Nc3ccc(Cl)cc3O[C@H](C)C(=O)NC(C)C(F)F)c12 (stereo partly drawn) [Example 4.125],1
24,Cc1cc(N=S2(=O)CCC2)cc2ncnc(Nc3ccc(F)cc3O[C@H](C)C(=O)NCC(F)(F)F)c12 [Example 4.139],1
25,Cc1cc([C@@H](C)Oc2cc(F)ccc2Nc2ncnc3cc(N=S4(=O)CCNCC4)cc(C)c23)on1 [Example 2.016],1
26,COC(=O)N1CC2(C1)CS(=O)(=Nc1cc(C)c3c(Nc4ccc(F)cc4O[C@H](C)C(=O)NCC(F)(F)F)ncnc3c1)C2 [Example 2.032],1
27,Cc1cc(N=S(C)(C)=O)cc2ncnc(Nc3ccc(F)cc3O[C@@H](C)CN)c12 [Example 3.024],16
